Measurements reported in article PMC10218862 (2023).

System: Tel22 (DNA, G4) AGGGTTAGGGTTAGGGTTAGGG
Test: CD melting, SVD global fit
Conditions: 150 mM KCl; 50 mM phosphate, 0.3 mM EDTA, pH 7; 60 μM ligand, 30 μM DNA; not irradiated; 3–4

C[n+]1ccc(-c2c3nc(c(-c4cc[n+](C)cc4)c4ccc([nH]4)c(-c4cc[n+](C)cc4)c4nc(c(-c5cc[n+](C)cc5)c5ccc2[nH]5)C=C4)C=C3)cc1
Tm: ~ 3 degrees
